# Patent US20120283334A1, “Treatment of Viral Infections” (Biocopea, Ltd., priority 2009, published 2012)
# “Also recorded” adds a separate entry of the source. Read-outs that look alike come from different tables or passages of the source.
# Assays:
# [1] = tested on: IFN-γ; experiment: IFN-γ levels in PBMC under LPS stimulation (ELISA); type: cell-based, human; settings: for Percentage IFN-γ levels compared to 100% untreated cells under LPS stimulation: PBMC; for concentration of IFN-γ in LPS stimulated cells: text summary of Table 1, concentration not stated
# Description: 1) Isolation, Culture and Treatment of Peripheral Blood Mononuclear Cells (PBMC) Blood was collected in 6 ml vacutainers (green cap). Blood was processed within 2 h of collection. Materials used: Non-coagulated blood; FCS; RPMI-1640 media supplemented with L-Gln and P/S; PBS; sterile tips and pipettes; Sterile 15 ml Falcon; Sterile V-bottom 96-well plates with lids; Neubauer chamber; Trypan Blue solution; 70% IPA solution; Accuspin-Histopaque tubes (Sigma, A7054) Procedure: • 1. Dilute samples 1:1 in sterile PBS; • 2. Add 30 ml of diluted blood into an Accuspin-Histopaque tube (Sigma, A7054); • 3. Centrifuge at 800 rcf 15min at room temperature (RT); • 4. After centrifugation, the red blood cells will remain at the bottom below the frit. The monocytes (PBMC) will be present on a layer above the frit, with the plasma on top; • 5. Collect the PBMC layer with a pipette into a fresh 15 ml Falcon tube and top up to 15 ml of PBS; • 6. Centrifuge at 250 rcf 10 min at RT; • 7. Discard the supernatant, flick the pellet and add another 10 ml of PBS; • 8. Centrifuge at 250 rcf 10 min at RT; • 9. Repeat steps 7 and 8; • 10. […] Count cells and make a 4×10^6 cell/ml suspension in complete medium. Add 100 μl of cell suspension per well in a V-bottom 96-well plate. Then add 50 μl of stimulant or vehicle in complete media, and 50 μl of drug or vehicle in complete media. Incubate the cells for 24 h at 37° C. 5% CO2; • 12. After incubation, take 60 μl of cell supernatant to measure IFNγ and TNFα by ELISA (OptEIA human IFNγ, cat No. 555142 and human TNF, Cat No. 555212) following manufacturer's instructions (BD Biosciences); The two mitogens that the inventors used to stimulate lymphocytes, and therefore assess immune function, were lipopolysaccharide (LPS) and Concanavalin A (Con A). LPS acts on B cells but not T cells, whereas Con A acts on T cells but not B cells. The effects of two embodiments of the compound represented by formula I, i.e. dobutamine (referred to in the tables as BC1021) and ritodrine (BC1023), on the levels of IFN-γ and TNF-α were investigated in LPS and Con A stimulated assays. Peripheral Blood Mononuclear Cells (PMBC) were independently administered with each mitogen, LPS or Con A, and then treated with either dobutamine or ritodrine. Control experiments were conducted in which no LPS or Con A was added, such that any effect on the levels of IFN-γ and TNF-α could be directly attributed to the presence of the test compound, dobutamine or ritodrine. The values in the Tables are expressed as the percentage value of the LPS only control. […] Standard deviation values (s.d.) are given underneath each value of expressed IFN-γ levels.
# [2] = tested on: Influenza A/PR/8/34 (H1N1 virus); experiment: In vivo mouse influenza challenge, dobutamine and ritodrine intra-peritoneal; settings: H1N1-infected mice; for Sum Total Morbidity: FIG. 3
# Description: 5) In Vivo Mouse Studies Using Dobutamine
# Protocol: Fifty (50) C57BL/6 female mice (6-7 weeks old), were divided into […] experimental groups containing ten (10) animals each. On day 1, animals received an intranasal lethal dose (50 μl total, 25 μl nostril) of Influenza A/PR/8/34 under halothane induced anesthesia. On Day 3, animals received one intra-peritoneal injection (100-150 μl) of the test compound. On Day 4 or 5, all animals still alive received a second intra-peritoneal injection (100-150 μl) of the test compound.
# All animals were assessed daily for morbidity, weight loss and survival from Day 1 until at least Day 6. Morbidity variables (i.e. Body Condition, Posture, Activity, Piloerection, Respiration, Vocalisation, Ataxia and Oculo/Nasal Discharges) were recorded according to the following scale of severity: Normal (0), Mild (1), Laboured (2) and Severe/Cull-point (3).
# Using standard techniques as described above, mice were infected with a H1N1 virus which was allowed to become established in each of the subjects. Each test mouse was then treated with dobutamine (BC1021) either with a single dose on day 3 after infection with the virus, or as two doses, one on day 3 and one on day 4 after infection. In the control mice, no dobutamine was administered. The weight loss of both treated and untreated mice was then determined.
# The inventors also investigated the effects of dobutamine (single and double doses) as well as ritodrine (single and double doses) on the Sum Total Morbidity of the tested mice. Referring to FIG. 3, there are shown the data of these experiments. The value of Sum Total Morbidity corresponds to a confidence value of the general “wellness” of the mice, and takes into account the quality of the fur and grooming of the mice, and whether or not the mice are able to feed and walk. Measurement of Morbidity values will be known to the skilled technician.
# [3] = tested on: Con A-stimulated cells; experiment: Cell cytotoxicity compared to digitonin under Con A stimulation
# From the text: Digitonin is a glycoside obtained from Digitalis purpurea, which acts as a detergent, and effectively water-solubilizes lipids in the plasma membrane. Therefore, digitonin can be used to permeabilise cell membranes. The inventors therefore investigated digitonin's cell membrane-permeabilising effects on Con A-stimulated cells to determine the cytotoxic effects of ritodrine or dobutamine.
# [4] = two doses on days 3 and 4 (Groups C and E)
SMILES,"Percentage IFN-γ levels compared to 100% untreated cells under LPS stimulation ([1]; + LPS, compound 1 μM, 24 h) [%]","Percentage IFN-γ levels compared to 100% untreated cells under LPS stimulation ([1]; + LPS, compound 10 μM, 24 h) [%]","Percentage IFN-γ levels compared to 100% untreated cells under LPS stimulation ([1]; + LPS, compound 100 μM, 24 h) [%]","Percentage IFN-γ levels compared to 100% untreated cells under LPS stimulation ([1]; compound only (no LPS), 1 μM) [%]","Percentage IFN-γ levels compared to 100% untreated cells under LPS stimulation ([1]; compound only (no LPS), 10 μM) [%]","Percentage IFN-γ levels compared to 100% untreated cells under LPS stimulation ([1]; compound only (no LPS), 100 μM) [%]",concentration of IFN-γ in LPS stimulated cells [1],"Sum Total Morbidity ([2]; all doses, single or double)","Sum Total Morbidity [2, 4]",also measured
"CC(CCc1ccc(O)cc1)NCCc1ccc(O)c(O)c1 (stereo not drawn) [BC1021, dobutamine]",82.88,29.84,37.22,1.21,−0.33,−0.99,decreased,improvement of the morbidity value,the most improvements; also recorded: the most effective,"effect on weight loss ([2]; single dose on day 3, FIG. 1): little effect; percentage survival of mice ([2]; single dose on day 3, FIG. 2): little effect; lower reduction in weight loss than the control mice ([2]; two doses on days 3 and 4 after infection, FIG. 1): ≥ 10%; percentage survival of mice ([2]; two doses, day 3 and day 4, FIG. 2): higher survival rate than the control; Percentage cytotoxicity compared to 100% for digitonin under Con A stimulation ([3]; compound only (no Con A), 1 μM): 47.71%; Percentage cytotoxicity compared to 100% for digitonin under Con A stimulation ([3]; compound only (no Con A), 10 μM): 42.94%; Percentage cytotoxicity compared to 100% for digitonin under Con A stimulation ([3]; compound only (no Con A), 100 μM): 32.33%; cytotoxicity rates in treated samples ([3]; text summary of Table 6, vast majority of cases): lower"
"CC(NCCc1ccc(O)cc1)C(O)c1ccc(O)cc1 (stereo not drawn) [BC1023, ritodrine]",44.79,51.41,38.74,1.04,2.73,5.46,decreased,improvement of the morbidity value,the most improvements,"cytotoxicity rates in treated samples [3]: lower; Percentage cytotoxicity compared to 100% for digitonin under Con A stimulation ([3]; human, 1 μM): 44.54%; Percentage cytotoxicity compared to 100% for digitonin under Con A stimulation ([3]; human, 10 μM): 43.63%; Percentage cytotoxicity compared to 100% for digitonin under Con A stimulation ([3]; human, 100 μM): 43.81%"
